Results: PubChem BioAssay (NCI)
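How tested: cells in 96-well plates exposed to compound for 48 hours at five concentrations. GI50 = concentration required for 50% inhibition of growth. The concentration for full growth arrest is given as TGI.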

Legend:
Experiment in all cases: growth of human tumour cells (NCI), 48 h
786-0 renal = tested on: 786-0 renal
A498 renal = tested on: A498 renal
A549 NSCLC = tested on: A549 NSCLC
ACHN renal = tested on: ACHN renal
BT-549 breast = tested on: BT-549 breast
CAKI-1 renal = tested on: CAKI-1 renal
CCRF-CEM leukemia = tested on: CCRF-CEM leukemia
COLO 205 colon = tested on: COLO 205 colon
DU-145 prostate = tested on: DU-145 prostate
EKVX NSCLC = tested on: EKVX NSCLC
HCC-2998 colon = tested on: HCC-2998 colon
HCT-116 colon = tested on: HCT-116 colon
HCT-15 colon = tested on: HCT-15 colon
HL-60(TB) leukemia = tested on: HL-60(TB) leukemia
HOP-62 NSCLC = tested on: HOP-62 NSCLC
HOP-92 NSCLC = tested on: HOP-92 NSCLC
HS 578T breast = tested on: HS 578T breast
HT29 colon = tested on: HT29 colon
IGROV1 ovarian = tested on: IGROV1 ovarian
KM12 colon = tested on: KM12 colon
LOX IMVI melanoma = tested on: LOX IMVI melanoma
M14 melanoma = tested on: M14 melanoma
MALME-3M melanoma = tested on: MALME-3M melanoma
MCF7 breast = tested on: MCF7 breast
MDA-MB-231 breast = tested on: MDA-MB-231 breast
MDA-MB-435 = tested on: MDA-MB-435
MOLT-4 leukemia = tested on: MOLT-4 leukemia
NCI-H226 lung = tested on: NCI-H226 lung
NCI-H23 lung = tested on: NCI-H23 lung
NCI-H460 lung = tested on: NCI-H460 lung
NCI-H522 lung = tested on: NCI-H522 lung
NCI/ADR-RES ovarian = tested on: NCI/ADR-RES ovarian
OVCAR-3 ovarian = tested on: OVCAR-3 ovarian
OVCAR-4 ovarian = tested on: OVCAR-4 ovarian
OVCAR-5 ovarian = tested on: OVCAR-5 ovarian
OVCAR-8 ovarian = tested on: OVCAR-8 ovarian
PC-3 prostate = tested on: PC-3 prostate
RPMI-8226 leukemia = tested on: RPMI-8226 leukemia
RXF 393 renal = tested on: RXF 393 renal
SF-268 CNS = tested on: SF-268 CNS
SF-295 CNS = tested on: SF-295 CNS
SF-539 CNS = tested on: SF-539 CNS
SK-MEL-2 melanoma = tested on: SK-MEL-2 melanoma
SK-MEL-28 melanoma = tested on: SK-MEL-28 melanoma
SK-MEL-5 melanoma = tested on: SK-MEL-5 melanoma
SK-OV-3 ovarian = tested on: SK-OV-3 ovarian
SN12C renal = tested on: SN12C renal
SNB-19 CNS = tested on: SNB-19 CNS
SNB-75 CNS = tested on: SNB-75 CNS
SW-620 colon = tested on: SW-620 colon
T-47D breast = tested on: T-47D breast
TK-10 renal = tested on: TK-10 renal
U251 CNS = tested on: U251 CNS
UACC-257 melanoma = tested on: UACC-257 melanoma
UACC-62 melanoma = tested on: UACC-62 melanoma
UO-31 renal = tested on: UO-31 renal

Cc1ncc(C(=O)Nc2ccc(CN3CCN(C)CC3)c(C(F)(F)F)c2)cc1C#Cc1c(N)ncc2ccc(F)cc12
GI50 (786-0 renal): 0.756 µM | TGI (786-0 renal): 1.56 µM | GI50 (A498 renal): 0.93 µM | TGI (A498 renal): 1.74 µM | GI50 (A549 NSCLC): 0.631 µM | TGI (A549 NSCLC): 1.44 µM | GI50 (ACHN renal): 0.374 µM | TGI (ACHN renal): 3.23 µM | GI50 (BT-549 breast): 1.49 µM | TGI (BT-549 breast): 4.12 µM | GI50 (CAKI-1 renal): 1.05 µM | TGI (CAKI-1 renal): 6.16 µM | GI50 (CCRF-CEM leukemia): 0.809 µM | TGI (CCRF-CEM leukemia): 2.14 µM | GI50 (COLO 205 colon): 0.197 µM | TGI (COLO 205 colon): 1.23 µM | GI50 (DU-145 prostate): 0.692 µM | TGI (DU-145 prostate): 1.39 µM | GI50 (EKVX NSCLC): 1.54 µM | TGI (EKVX NSCLC): 9.37 µM | GI50 (HCC-2998 colon): 1.01 µM | TGI (HCC-2998 colon): 7.81 µM | GI50 (HCT-116 colon): 0.176 µM | TGI (HCT-116 colon): 0.873 µM | GI50 (HCT-15 colon): 0.559 µM | TGI (HCT-15 colon): 3.15 µM | GI50 (HL-60(TB) leukemia): 0.319 µM | TGI (HL-60(TB) leukemia): 2.06 µM | GI50 (HOP-62 NSCLC): 1.18 µM | TGI (HOP-62 NSCLC): 8.18 µM | GI50 (HOP-92 NSCLC): 0.0489 µM | TGI (HOP-92 NSCLC): 0.468 µM | GI50 (HS 578T breast): 0.588 µM | TGI (HS 578T breast): 2.74 µM | GI50 (HT29 colon): 0.0689 µM | TGI (HT29 colon): 0.651 µM | GI50 (IGROV1 ovarian): 0.301 µM | TGI (IGROV1 ovarian): 6.27 µM | GI50 (KM12 colon): 0.005 µM | TGI (KM12 colon): 0.646 µM | GI50 (LOX IMVI melanoma): 0.184 µM | TGI (LOX IMVI melanoma): 0.841 µM | GI50 (M14 melanoma): 0.128 µM | TGI (M14 melanoma): 0.69 µM | GI50 (MALME-3M melanoma): 0.105 µM | TGI (MALME-3M melanoma): 0.601 µM | GI50 (MCF7 breast): 0.503 µM | TGI (MCF7 breast): 1.33 µM | GI50 (MDA-MB-231 breast): 0.129 µM | TGI (MDA-MB-231 breast): 0.743 µM | GI50 (MDA-MB-435): 0.17 µM | TGI (MDA-MB-435): 1.04 µM | GI50 (MOLT-4 leukemia): 0.579 µM | TGI (MOLT-4 leukemia): 1.74 µM | GI50 (NCI-H226 lung): 0.624 µM | TGI (NCI-H226 lung): 3.65 µM | GI50 (NCI-H23 lung): 0.596 µM | TGI (NCI-H23 lung): 1.37 µM | GI50 (NCI-H460 lung): 0.643 µM | TGI (NCI-H460 lung): 1.47 µM | GI50 (NCI-H522 lung): 0.668 µM | TGI (NCI-H522 lung): 1.83 µM | GI50 (NCI/ADR-RES ovarian): 1.26 µM | TGI (NCI/ADR-RES ovarian): 4.25 µM | GI50 (OVCAR-3 ovarian): 0.789 µM | TGI (OVCAR-3 ovarian): 1.54 µM | GI50 (OVCAR-4 ovarian): 2.6 µM | TGI (OVCAR-4 ovarian): 10.8 µM | GI50 (OVCAR-5 ovarian): 0.669 µM | TGI (OVCAR-5 ovarian): 3.03 µM | GI50 (OVCAR-8 ovarian): 0.931 µM | TGI (OVCAR-8 ovarian): 2.41 µM | GI50 (PC-3 prostate): 0.87 µM | TGI (PC-3 prostate): 3.14 µM | GI50 (RPMI-8226 leukemia): 0.673 µM | TGI (RPMI-8226 leukemia): 2.17 µM | GI50 (RXF 393 renal): 0.608 µM | TGI (RXF 393 renal): 1.29 µM | GI50 (SF-268 CNS): 0.717 µM | TGI (SF-268 CNS): 2.5 µM | GI50 (SF-295 CNS): 3.45 µM | TGI (SF-295 CNS): 11.3 µM | GI50 (SF-539 CNS): 0.624 µM | TGI (SF-539 CNS): 1.3 µM | GI50 (SK-MEL-2 melanoma): 1.05 µM | TGI (SK-MEL-2 melanoma): 5.77 µM | GI50 (SK-MEL-28 melanoma): 0.415 µM | TGI (SK-MEL-28 melanoma): 1.23 µM | GI50 (SK-MEL-5 melanoma): 0.678 µM | TGI (SK-MEL-5 melanoma): 1.53 µM | GI50 (SK-OV-3 ovarian): 4.79 µM | TGI (SK-OV-3 ovarian): 12 µM | GI50 (SN12C renal): 0.422 µM | TGI (SN12C renal): 3.05 µM | GI50 (SNB-19 CNS): 0.787 µM | TGI (SNB-19 CNS): 1.49 µM | GI50 (SNB-75 CNS): 0.774 µM | TGI (SNB-75 CNS): 2.27 µM | GI50 (SW-620 colon): 0.274 µM | TGI (SW-620 colon): 1.07 µM | GI50 (T-47D breast): 4.1 µM | TGI (T-47D breast): 16.3 µM | GI50 (TK-10 renal): 0.715 µM | TGI (TK-10 renal): 1.52 µM | GI50 (U251 CNS): 0.826 µM | TGI (U251 CNS): 1.58 µM | GI50 (UACC-257 melanoma): 0.649 µM | TGI (UACC-257 melanoma): 3.22 µM | GI50 (UACC-62 melanoma): 0.282 µM | TGI (UACC-62 melanoma): 2.84 µM | GI50 (UO-31 renal): 0.602 µM | TGI (UO-31 renal): 2.8 µM
